pIC50: −log10 of the molar value. Where a name gives a salt, the structure may show the parent alone.
Assays:
B-Raf = B-Raf (Homo sapiens, UniProt P15056); test: B-Raf Accelerated MEK ATPase assay (BRAMA), Method A or B; type: biochemical; conditions: Method B: final MEK 150 nM, single end point read
Summary of the method: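 ADP production, initiated by catalytic activated Raf with unphosphorylated MEK, is followed by NADH oxidation through a PK/LDH coupled system. Method B differs from the kinetic Method A by a single end-point read and 150 nM final MEK.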

A375P F11s tumor cells = test: Cell growth inhibition assay (CellTiter-Glo), A375P F11s; type: cell-based, Human; conditions: for pIC50: Homo sapiens
Summary of the method: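 Cells plated at 500 cells/well in their growth media, dosed next day with nine-step 1:3 compound dilutions (final DMSO 0.2%), then incubated 3 days at 37° C, 5% CO2. Total ATP read by CellTiter-Glo luminescence as a surrogate for cell number; IC50 interpolated from 4-parameter fit versus DMSO controls.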

SK-MEL-28 tumor cells = test: Cell growth inhibition assay (CellTiter-Glo), SK-MEL-28; type: cell-based, Human; conditions: Homo sapiens, SK-MEL-28, 72 h; 3 days incubation
Summary of the method: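 Readout was CellTiter-Glo luminescence (total ATP, surrogate for cell number) after 3-day exposure at 37° C, 5% CO2 to 1:3 serial compound dilutions in 0.2% final DMSO. Seeding was 500 cells/well; IC50 derived by 4-parameter fit relative to vehicle-treated wells.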

B-Raf, sequence (P15056 whole entry): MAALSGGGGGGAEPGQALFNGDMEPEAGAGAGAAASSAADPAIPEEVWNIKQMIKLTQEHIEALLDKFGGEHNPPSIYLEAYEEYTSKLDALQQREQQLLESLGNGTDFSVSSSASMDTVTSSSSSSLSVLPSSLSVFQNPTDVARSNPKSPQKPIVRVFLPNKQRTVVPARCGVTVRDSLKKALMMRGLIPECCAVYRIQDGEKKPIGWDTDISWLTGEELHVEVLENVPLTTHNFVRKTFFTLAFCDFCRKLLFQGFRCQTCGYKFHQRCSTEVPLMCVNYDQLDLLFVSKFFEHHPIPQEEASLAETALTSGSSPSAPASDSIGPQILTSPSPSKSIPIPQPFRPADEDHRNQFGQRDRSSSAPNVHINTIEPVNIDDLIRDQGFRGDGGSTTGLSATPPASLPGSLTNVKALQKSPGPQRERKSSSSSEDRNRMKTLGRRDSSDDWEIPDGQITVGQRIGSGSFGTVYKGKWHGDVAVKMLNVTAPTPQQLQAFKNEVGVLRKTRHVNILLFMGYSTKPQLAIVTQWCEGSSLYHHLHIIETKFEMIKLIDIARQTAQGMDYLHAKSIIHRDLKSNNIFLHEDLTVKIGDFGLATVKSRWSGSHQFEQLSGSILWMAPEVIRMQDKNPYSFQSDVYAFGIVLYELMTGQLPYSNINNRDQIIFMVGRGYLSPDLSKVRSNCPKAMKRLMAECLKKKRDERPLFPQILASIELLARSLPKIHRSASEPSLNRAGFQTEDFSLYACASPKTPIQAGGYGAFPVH

| Structure (SMILES) | pIC50 (B-Raf) | Activity in A375P F11s Tumor Cells (A375P F11s tumor cells) | pIC50 (SK-MEL-28 tumor cells) | pIC50 (A375P F11s tumor cells) |
| --- | --- | --- | --- | --- |
| Cc1cc(N2CCOCC2)ncc1Nc1nccc(-c2sc(N3CCCC3)nc2-c2cccc(NS(=O)(=O)c3c(F)cccc3F)c2)n1 [Example 124] | > 7.00 | + (activity of >1 μM in A375P F11s tumor cells) | 6.00 to 7.00 | – |
| O=S(=O)(Nc1cccc(-c2nc(N3CCOCC3)sc2-c2ccnc(Nc3ccc(N4CCOCC4)nc3)n2)c1F)c1c(F)cccc1F [Example 122] | > 7.00 | – | > 7.00 | > 7.00 |
| CC(C)c1nc(-c2cccc(NS(=O)(=O)C3CCCCC3)c2)c(-c2ccnc(Nc3ccc(N4CCOCC4)c(F)c3)n2)s1 [Example 38] | 6.00 to 7.00 | – | 6.00 to 7.00 | 6.00 to 7.00 |
| CC(C)c1nc(-c2cccc(NS(=O)(=O)c3c(F)cccc3F)c2F)c(-c2ccnc(Nc3cnc(N4CCOCC4)c(F)c3)n2)s1 [Example 30, 2,6-Difluoro-N-{2-fluoro-3-[5-(2-{[5-fluoro-6-(4-morpholinyl)-3-pyridinyl]amino}-4-pyrimidinyl)-2-(1-methylethyl)-1,3-thiazol-4-yl]phenyl}benzenesulfonamide] | > 7.00 | – | > 7.00 | > 7.00 |
| CC(C)c1nc(-c2cccc(NS(=O)(=O)c3ccccc3)c2)c(-c2ccnc(Nc3ccc(N4CCOCC4)nc3)n2)s1 [Example 8, N-{3-[2-(1-Methylethyl)-5-(2-{[6-(4-morpholinyl)-3-pyridinyl]amino}-4-pyrimidinyl)-1,3-thiazol-4-yl]phenyl}benzenesulfonamide hydrochloride] | > 7.00 | – | > 7.00 | > 7.00 |
| CS(=O)(=O)CCN1CCN(c2ccc(Nc3nccc(-c4oc(N5CCCC5)nc4-c4cccc(NS(=O)(=O)c5c(F)cccc5F)c4F)n3)cc2F)CC1 [Example 167] | > 7.00 | – | > 7.00 | > 7.00 |
| CCNc1nc(-c2ccc(F)c(NS(=O)(=O)c3c(F)cccc3F)c2)c(-c2ccnc(Nc3ccc(N4CCOCC4)nc3)n2)s1 [Example 166] | > 7.00 | – | > 7.00 | 6.00 to 7.00 |
| COc1cc(N2CCN(CCS(C)(=O)=O)CC2)c(C)cc1Nc1nccc(-c2sc(C(C)(C)C)nc2-c2cccc(NS(=O)(=O)c3c(F)cccc3F)c2)n1 [Example 120] | > 7.00 | – | 6.00 to 7.00 | 6.00 to 7.00 |
| CC(C)c1nc(-c2cccc(NS(=O)(=O)c3c(F)cccc3F)c2)c(-c2ccnc(Nc3ccc(N4CCN(CCS(C)(=O)=O)CC4)c(F)c3)n2)s1 [Example 16, 2,6-Difluoro-N-{3-[5-{2-[(3-fluoro-4-{4-[2-(methylsulfonyl)ethyl]-1-piperazinyl}phenyl)amino]-4-pyrimidinyl}-2-(1-methylethyl)-1,3-thiazol-4-yl]ohenyl}benzenesulfonamide hydrochloride] | > 7.00 | – | > 7.00 | > 7.00 |
| CCOc1ccc(Nc2nccc(-c3sc(C(C)C)nc3-c3ccc(F)c(NS(=O)(=O)c4c(F)cccc4F)c3)n2)cc1N1CCN(CCF)CC1 [Example 98] | > 7.00 | – | 6.00 to 7.00 | 6.00 to 7.00 |
